10 compounds from patent US8354434B2, “Cyclourea compounds as calcium channel blockers” (Purdue Pharma L.P., priority 2006, dated 2013) can be followed below.

pIC50: −log10 of the molar value.

Assay [1] addresses T1, L-type calcium channel (LTCC) (Rattus norvegicus, UniProt P22002).
T1 construct: differentiated A7r5 cells were trypsinized, then seeded on tissue culture treated 96-well clear-bottom black plates; endogenous in cells; host or cells: A7r5 cells (ATCC), differentiated 8 days with dibutyryl cAMP
Nature of the assay: FLIPR calcium mobilization assay for L-type calcium channel. The assay is classed as cell-based. Particulars: calcium mobilization in vitro assay, differentiated A7r5 cells. On the procedure:
A7r5 (ATCC) cells were maintained and routinely cultured in A7r5 growth medium consisting of Dulbecco's Modified Eagles Medium containing 10% FBS, 100 U/mL penicillin, 100 μg/mL streptomycin, 4 mM L-glutamine, and 0.15% sodium bicarbonate. 80-90% confluent flasks of cells were differentiated using the following differentiation medium: A7r5 Growth Medium plus 1 mM dibutyryl cyclic AMP (Sigma). Cells were differentiated for 8 days by replacing differentiation medium every 2-3 days.
FLIPR Calcium Mobilization Assay for L-type Calcium Channel. One day prior to performing this assay, differentiated A7r5 cells were trypsinized, then seeded on tissue culture treated 96-well clear-bottom black plates (Becton Dickinson, Franklin Lakes, N.J.) at a dilution of 1:1 from a confluent T150 cm^2 flask. On the day of the assay, the plates were washed with A7r5 wash buffer (127 mM NaCl, 2 mM MgCl2, 700 μM NaH2PO4, 5 mM CaCl2, 5 mM NaHCO3, 8 mM HEPES, 10 mM glucose, pH 7.4), then loaded with 0.1 mL of A7r5 wash buffer containing Fluo-4 (3 μM final concentration, Molecular Probes, Eugene, Oreg.). After 1 hour, the cells were washed with 0.1 mL A7r5 wash buffer and resuspended in 0.05 mL A7r5 assay buffer that was composed of A7r5 wash buffer plus 50 μM valinomycin (Sigma). Plates were then transferred to a FLIPR^96 for assay. The FLIPR measured basal Fluo-4 fluorescence for 15 seconds, then added 0.05 mL of each compound tested diluted in A7r5 assay buffer at final concentrations ranging from about […]. Fluo-4 fluorescence was then measured for 5 minutes. 0.1 mL KCl agonist dissolved in A7r5 assay buffer was then added to the cells to produce a final concentration of 90 mM KCl, and fluorescence was measured for another 45 seconds. Data were collected over the entire time course and analyzed using Excel, Graph Pad Prism, or Activity Base software.

Assay [2] has as its target T2, N-type calcium channel (NTCC) (Homo sapiens, UniProt Q00975).
T2 construct: endogenous in cells; host or cells: IMR32 cells (ATCC), differentiated 8 days with dibutyryl cAMP and bromodeoxyuridine
Nature of the assay: FLIPR calcium mobilization assay for N-type calcium channel. The assay is classed as cell-based. The conditions noted are these: calcium mobilization in vitro assay, differentiated IMR32 cells. On the procedure:
Cell maintenance and differentiation. Unless noted otherwise, cell culture reagents were purchased from Life Technologies of Rockville, Md. IMR32 cells (American Type Culture Collection, ATCC, Manassas, Va.) were routinely cultured in growth medium consisting of minimum essential medium containing 10% fetal bovine serum (FBS, Hyclone, Logan, Utah), 100 U/mL penicillin, 100 μg/mL streptomycin, 2 mM L-glutamine, 1 mM sodium pyruvate, and 1×MEM non-essential amino acids. 80-90% confluent flasks of cells were differentiated using the following differentiation medium: Growth medium plus 1 mM dibutyryl cyclic AMP (Sigma, St. Louis, Mo.), and 2.5 μM bromodeoxyuridine (Sigma). Cells were differentiated for 8 days by replacing differentiation medium every 2-3 days.
FLIPR Calcium Mobilization Assay for N-type Calcium Channel. One day prior to performing this assay, differentiated IMR32 cells were treated with 1×CellStripper, and seeded on poly-D-lysine-coated 96-well clear-bottom black plates (Becton Dickinson, Franklin Lakes, N.J.) at 200,000 cells/well. On the day of the assay, the cell plates were washed with IMR32 buffer (127 mM NaCl, 1 mM KCl, 2 mM MgCl2, 700 μM NaH2PO4, 5 mM CaCl2, 5 mM NaHCO3, 8 mM HEPES, 10 mM glucose, pH 7.4), then pre-stimulated with KCl and loaded as follows: 0.05 mL of IMR32 buffer, 0.05 mL of each compound tested diluted in IMR32 buffer containing 20 μM nitrendipine (Sigma), and 0.1 mL KCl dissolved in IMR32 buffer, plus Fluo-4 were added (3 μM final concentration, Molecular Probes, Eugene, Oreg.). Final test compound concentrations ranged from about 846 μM to about 17 μM, final nitrendipine concentration was 5 μM, and final KCl concentration was 90 mM. After 1 hour, the cells were washed twice with 0.05 mL of each compound tested in nitrendipine-containing IMR32 buffer (no KCl or Fluo-4), and then replaced with 0.1 mL of each compound tested in nitrendipine-containing IMR32 buffer. Plates were then transferred to a Fluorimetric Imaging Plate Reader (FLIPR^96, Molecular Devices, Inc., Sunnyvale, Calif.) for assay. The FLIPR measured basal Fluo-4 fluorescence for 315 seconds (i.e., 5 minutes and 15 seconds), then added 0.1 mL KCl agonist dissolved in IMR32 buffer and measured fluorescence for another 45 seconds. Final test compound concentrations on the cells after FLIPR read ranged from about 846 μM to about 17 μM, final nitrendipine concentration was 5 μM, and final KCl concentration was 90 mM. Data were collected over the entire time course and analyzed using Excel, Graph Pad Prism (version 3.02, Graph Pad, San Diego, Calif.), or Activity Base (version 5.1, IDBS, Parsippany, N.J.) software.

T1 sequence (P22002 whole entry): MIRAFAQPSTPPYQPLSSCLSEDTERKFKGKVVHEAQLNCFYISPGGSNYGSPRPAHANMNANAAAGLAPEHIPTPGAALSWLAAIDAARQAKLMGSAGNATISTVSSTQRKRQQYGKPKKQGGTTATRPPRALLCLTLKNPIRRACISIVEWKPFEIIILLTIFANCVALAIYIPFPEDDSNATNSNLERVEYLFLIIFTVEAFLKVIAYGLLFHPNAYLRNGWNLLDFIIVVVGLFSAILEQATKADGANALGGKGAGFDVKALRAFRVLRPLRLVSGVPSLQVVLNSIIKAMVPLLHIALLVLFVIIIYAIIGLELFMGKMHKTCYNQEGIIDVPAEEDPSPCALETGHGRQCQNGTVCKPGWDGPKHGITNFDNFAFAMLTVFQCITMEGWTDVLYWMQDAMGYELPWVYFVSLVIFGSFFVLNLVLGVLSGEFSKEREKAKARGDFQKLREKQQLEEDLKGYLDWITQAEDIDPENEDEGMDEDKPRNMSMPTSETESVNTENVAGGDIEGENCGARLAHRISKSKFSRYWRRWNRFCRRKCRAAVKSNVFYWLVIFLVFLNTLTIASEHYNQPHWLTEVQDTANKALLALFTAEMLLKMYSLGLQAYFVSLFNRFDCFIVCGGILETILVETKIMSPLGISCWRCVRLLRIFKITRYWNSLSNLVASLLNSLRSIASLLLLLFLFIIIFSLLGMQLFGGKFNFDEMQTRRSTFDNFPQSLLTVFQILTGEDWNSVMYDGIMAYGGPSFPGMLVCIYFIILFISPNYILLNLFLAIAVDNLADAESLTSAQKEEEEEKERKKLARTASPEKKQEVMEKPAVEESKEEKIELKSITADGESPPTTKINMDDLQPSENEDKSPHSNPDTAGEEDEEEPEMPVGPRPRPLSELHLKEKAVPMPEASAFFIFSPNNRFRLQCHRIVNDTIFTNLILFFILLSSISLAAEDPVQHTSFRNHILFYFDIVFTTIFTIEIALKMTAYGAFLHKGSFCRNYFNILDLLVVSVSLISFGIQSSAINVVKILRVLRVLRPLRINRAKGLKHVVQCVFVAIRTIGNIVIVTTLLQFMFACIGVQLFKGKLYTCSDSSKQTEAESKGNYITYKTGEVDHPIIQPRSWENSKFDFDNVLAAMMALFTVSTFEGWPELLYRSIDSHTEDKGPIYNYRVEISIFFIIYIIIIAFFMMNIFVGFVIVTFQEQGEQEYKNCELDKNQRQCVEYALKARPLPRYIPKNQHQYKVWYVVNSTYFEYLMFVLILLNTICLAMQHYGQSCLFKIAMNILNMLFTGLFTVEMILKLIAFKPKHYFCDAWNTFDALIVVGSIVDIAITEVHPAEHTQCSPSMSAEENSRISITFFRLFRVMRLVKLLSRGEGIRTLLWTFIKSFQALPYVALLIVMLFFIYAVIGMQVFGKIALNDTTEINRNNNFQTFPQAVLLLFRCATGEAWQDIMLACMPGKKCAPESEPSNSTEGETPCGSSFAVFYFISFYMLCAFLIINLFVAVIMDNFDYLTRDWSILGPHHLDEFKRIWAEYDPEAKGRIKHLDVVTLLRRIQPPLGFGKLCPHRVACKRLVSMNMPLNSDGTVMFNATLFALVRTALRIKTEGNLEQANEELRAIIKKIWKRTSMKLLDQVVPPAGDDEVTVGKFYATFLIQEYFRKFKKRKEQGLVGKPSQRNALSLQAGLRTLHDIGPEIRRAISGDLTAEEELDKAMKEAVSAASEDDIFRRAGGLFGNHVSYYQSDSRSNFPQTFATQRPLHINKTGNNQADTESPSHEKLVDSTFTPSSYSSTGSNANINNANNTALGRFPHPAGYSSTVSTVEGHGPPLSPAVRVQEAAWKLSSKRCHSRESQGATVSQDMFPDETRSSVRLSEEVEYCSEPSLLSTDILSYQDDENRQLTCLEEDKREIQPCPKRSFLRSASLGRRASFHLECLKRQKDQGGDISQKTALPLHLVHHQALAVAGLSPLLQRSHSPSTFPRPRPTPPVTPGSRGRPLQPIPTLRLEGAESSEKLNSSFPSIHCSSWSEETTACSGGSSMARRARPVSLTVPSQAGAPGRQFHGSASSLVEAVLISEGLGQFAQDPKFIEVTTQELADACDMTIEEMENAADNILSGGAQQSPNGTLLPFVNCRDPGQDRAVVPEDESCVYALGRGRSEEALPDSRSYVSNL
T1 sequence (P54287 whole entry partner): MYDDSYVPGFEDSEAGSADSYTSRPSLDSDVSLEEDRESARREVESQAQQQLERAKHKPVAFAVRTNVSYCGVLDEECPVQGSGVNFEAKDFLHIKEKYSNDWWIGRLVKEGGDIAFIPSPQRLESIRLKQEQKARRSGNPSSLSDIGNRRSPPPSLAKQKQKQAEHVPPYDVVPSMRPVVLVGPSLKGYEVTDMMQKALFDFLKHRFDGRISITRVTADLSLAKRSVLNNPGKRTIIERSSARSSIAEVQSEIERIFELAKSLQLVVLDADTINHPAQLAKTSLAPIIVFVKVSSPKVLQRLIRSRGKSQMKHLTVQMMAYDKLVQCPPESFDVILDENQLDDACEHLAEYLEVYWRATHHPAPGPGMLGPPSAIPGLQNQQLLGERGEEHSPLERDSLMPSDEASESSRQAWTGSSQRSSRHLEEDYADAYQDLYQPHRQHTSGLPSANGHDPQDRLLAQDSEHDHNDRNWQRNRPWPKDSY
T1 sequence (P54290 25-944 partner limits assumed): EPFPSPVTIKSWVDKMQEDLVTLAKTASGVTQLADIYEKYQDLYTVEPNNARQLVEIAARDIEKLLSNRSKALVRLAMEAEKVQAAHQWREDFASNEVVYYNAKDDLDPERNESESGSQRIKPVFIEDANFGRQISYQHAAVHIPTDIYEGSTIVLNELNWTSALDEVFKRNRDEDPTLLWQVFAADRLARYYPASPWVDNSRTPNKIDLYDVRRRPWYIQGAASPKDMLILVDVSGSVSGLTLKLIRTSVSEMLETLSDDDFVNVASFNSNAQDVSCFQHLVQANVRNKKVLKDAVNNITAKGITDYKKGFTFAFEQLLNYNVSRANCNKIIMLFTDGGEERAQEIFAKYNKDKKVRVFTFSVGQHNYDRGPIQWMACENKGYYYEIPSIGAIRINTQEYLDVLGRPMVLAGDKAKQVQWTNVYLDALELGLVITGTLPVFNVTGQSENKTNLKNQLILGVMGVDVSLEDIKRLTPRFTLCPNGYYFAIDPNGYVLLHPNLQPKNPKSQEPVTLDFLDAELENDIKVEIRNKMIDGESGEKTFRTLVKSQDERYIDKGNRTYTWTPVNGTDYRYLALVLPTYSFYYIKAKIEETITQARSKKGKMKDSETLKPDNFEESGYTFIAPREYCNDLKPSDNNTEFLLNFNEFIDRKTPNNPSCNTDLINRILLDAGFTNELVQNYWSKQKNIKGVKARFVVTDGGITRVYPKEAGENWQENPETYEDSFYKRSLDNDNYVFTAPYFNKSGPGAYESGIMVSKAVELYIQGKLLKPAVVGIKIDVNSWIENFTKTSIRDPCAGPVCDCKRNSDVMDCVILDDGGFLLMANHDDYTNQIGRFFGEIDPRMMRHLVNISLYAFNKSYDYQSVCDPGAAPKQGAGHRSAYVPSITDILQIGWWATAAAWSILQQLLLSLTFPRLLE
T1 sequence (P54290 945-1091 partner limits assumed): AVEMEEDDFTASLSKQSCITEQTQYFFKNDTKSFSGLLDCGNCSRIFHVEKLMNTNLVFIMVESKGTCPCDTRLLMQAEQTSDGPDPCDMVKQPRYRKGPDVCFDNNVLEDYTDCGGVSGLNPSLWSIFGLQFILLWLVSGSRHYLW

Consider `O=C1N(CC=Cc2ccccc2)CCN1CCCC(c1ccc(F)cc1)c1ccc(F)cc1` [1-[4,4-bis(4-fluorophenyl)butyl]-3-(3-phenylprop-2-enyl)imidazolidin-2-one], for which the negative-log IC50 (pIC50) was 5.44 in assay [1] and 5.94 in assay [2].
Turning to `O=C1N(CCCC(c2ccc(F)cc2)c2ccc(F)cc2)CCN1Cc1ccncc1` [1-[4,4-Bis(4-fluorophenyl)butyl]-3-(pyridin-4-ylmethyl)imidazolidin-2-one], the results for the pIC50 in assay [1] and in assay [2] were 5.46 and 5.92, respectively.
Taken in the same sequence, the figures for `O=C(OCc1ccccc1)N1C(=O)N(CCCC(c2ccc(F)cc2)c2ccc(F)cc2)[C@H]2C[C@H]21` [2-[4,4-Bis(4-fluorophenyl)butyl]-4-benzyloxycarbonyl-2,4-diaza-bicyclo[3.1.0]hexan-3-one] were 5.48 and 6.47.
`O=c1n(CCCC(c2ccc(F)cc2)c2ccc(F)cc2)c2ccccc2n1CCN1CCCCC1` [1-[4,4-Bis(4-fluorophenyl)butyl]-3-[2-(piperidin-1-yl)ethyl]-1,3-dihydro-benzoimidazol-2-one]: the pIC50 in assay [1] is less than 4.70; in assay [2] it was 5.67.
Taken in the same sequence, the figures for `O=C1N(CCCC(c2ccc(F)cc2)c2ccc(F)cc2)CCN1C1CC1` [1-[4,4-bis(4-fluorophenyl)butyl]-3-cyclopropylimidazolidin-2-one] were 6.39 and 6.21.
In the same order, the values of `CN1CCN(CCCC(c2ccc(F)cc2)c2ccc(F)cc2)C1=O` [1-[4,4-bis(4-fluorophenyl)butyl]-3-methylimidazolidin-2-one] are 6.10 and 6.17.
Consider `O=C1N(CCC(c2ccccc2)c2ccccc2)CCN1c1ccccc1` [1-(3,3-diphenylpropyl)-3-phenylimidazolidin-2-one], for which the negative logarithm of the IC50 (pIC50) was 4.70 to 5.00 in assay [1] and 5.36 in assay [2].
In the same order, the values of `O=c1n(CCCC(c2ccc(F)cc2)c2ccc(F)cc2)c2ccccc2n1Cc1ccccn1` [1-[4,4-Bis(4-fluorophenyl)butyl]-3-(pyridin-2-yl)methyl-1,3-dihydro-benzoimidazol-2-one] are 5.33 and 6.09.
With `O=C1NCCN1CCCC(c1ccc(F)cc1)c1ccc(F)cc1` [1-[4,4-Bis(4-fluorophenyl)butyl]-imidazolidin-2-one], in assay [2], the pIC50 was 5.43.
Regarding `O=C1N(CCCC(c2ccc(F)cc2)c2ccc(F)cc2)CCN1CCN1CCCC1` [1-[4,4-bis(4-fluorophenyl)butyl]-3-[2-(pyrrolidin-1-yl)ethyl]imidazolidin-2-one], the pIC50 in assay [1] is 5.45; in assay [2], 5.87.
